pEC50: −log10 of the molar value. Read-outs that look alike come from different tables or passages of the source.
Tests used:
primary human T-cells [1] = experiment: Proliferation assay after 5 days (CellTiter-Glo, CD3 stimulation; PBS counter screen); type: cell-based; settings: CD3 stimulation; for Emax / Emax proliferation (% activation): 5 days, normalized to reference compound A1 as stimulator control = 100%, DMSO neutral control; for Emax: read-out: Emax proliferation (% activation); for pEC50: primary human T-cells, CellTiter-Glo after 5 days, EC50 of fitted sigmoidal curve, read-out: Tcell Proliferation CD3 EC50
Protocol: Compounds are then added (see next section) to medium only plates.
Cells are assessed for proliferation 5 days later by measuring […] using CellTiterGlo (Promega).
After 5 days, for detection of ATP which is directly proportional to the number of cells present per well, the CellTiter-Glo® 2.0 Reagent is used. After visual control for toxicity or precipitations of the tested compounds, the plates are equilibrated to room temperature for 45 minutes. CellTiter-Glo® 2.0 Reagent is equilibrated to room temperature as well. After equilibration, an equal amount of CellTiter-Glo reagent is added to the cells (80 μl/well) with an electronic multichannel pipette. Plates are placed on a rocking platform for 15 minutes at room temperature. After incubation, the bottom of the plates is sealed with backing tape. Luminescence is measured with PHERAstar FSX (interval time 0.5 sec, gain 3000, focal height 15 mm) and exported as CSV file for analysis in Genedata screener.
Compounds which activate unstimulated cells (see IL2 measurements) or compounds which negatively affected viability were flagged.

primary human T-cells [2] = system: primary human T-cells

SMILES | Emax (primary human T-cells [1]; Homo sapiens, T-cell, 120 h) [%] | pEC50 (primary human T-cells [1]; Homo sapiens, T-cell, 120 h) | pEC50 (primary human T-cells [2]) | Emax proliferation (% activation) (primary human T-cells [1]) | pEC50 (primary human T-cells [1])
CS(=O)(=O)N1CCC(n2nnc(-c3cc4c(cc3F)S(=O)(=O)C[C@H](N)C(=O)N4Cc3ccc(Cl)cc3)n2)CC1 [Example 17, (3R)-3-amino-5-[(4-chlorophenyl)methyl]-8-fluoro-7-[2-(1-methylsulfonyl-4-piperidyl)tetrazol-5-yl]-1,1-dioxo-2,3-dihydro-1λ^6,5-benzothiazepin-4-one] | 239 | 6.78 | 6.58 |  | 
CS(=O)(=O)N1CCCC(n2nnc(-c3cc4c(cc3F)S(=O)(=O)C[C@H](N)C(=O)N4Cc3ccc(Cl)cc3)n2)C1 (stereo partly drawn) [Example 18, (3R)-3-amino-5-[(4-chlorophenyl)methyl]-8-fluoro-7-[2-(1-methylsulfonyl-3-piperidyl)tetrazol-5-yl]-1,1-dioxo-2,3-dihydro-1λ^6,5-benzothiazepin-4-one] | 136 | 6.53 | 6.04 |  | 
CS(=O)(=O)N1CCC(n2nnc(-c3cc4c(cc3F)S(=O)(=O)C[C@H](N)C(=O)N4Cc3ccc(Cl)cc3)n2)C1 (stereo partly drawn) [Example 19, (3R)-3-amino-5-[(4-chlorophenyl)methyl]-8-fluoro-7-[2-(1-methylsulfonylpyrrolidin-3-yl)tetrazol-5-yl]-1,1-dioxo-2,3-dihydro-1λ^6,5-benzothiazepin-4-one] | 58 | 5.89 | 5.93 |  | 
CN1CCCC(n2nnc(-c3cc4c(cc3F)S(=O)(=O)C[C@H](N)C(=O)N4Cc3ccc(Cl)cc3)n2)C1 (stereo partly drawn) [Example 20, (3R)-3-amino-5-[(4-chlorophenyl)methyl]-8-fluoro-7-[2-(1-methyl-3-piperidyl)tetrazol-5-yl]-1,1-dioxo-2,3-dihydro-1λ^6,5-benzothiazepin-4-one] | 111 | 6.25 | 6.07 |  | 
CN1CC(n2nnc(-c3cc4c(cc3F)S(=O)(=O)C[C@H](N)C(=O)N4Cc3ccc(Cl)cc3)n2)CC(F)(F)C1 (stereo partly drawn) [Example 21, (3R)-3-amino-5-[(4-chlorophenyl)methyl]-7-[2-(5,5-difluoro-1-methyl-3-piperidyl)tetrazol-5-yl]-8-fluoro-1,1-dioxo-2,3-dihydro-1λ^6,5-benzothiazepin-4-one] | 127 | 6.53 | 6.18 |  | 
CN1CC(n2nnc(-c3cc4c(cc3F)S(=O)(=O)C[C@H](N)C(=O)N4Cc3ccccc3)n2)CC(F)(F)C1 (stereo partly drawn) [Example 22, (3R)-3-amino-5-benzyl-7-[2-(5,5-difluoro-1-methyl-3-piperidyl)tetrazol-5-yl]-8-fluoro-1,1-dioxo-2,3-dihydro-1λ^6,5-benzothiazepin-4-one] | 74 | < 5.00 | < 5.00 |  | 
CS(=O)(=O)N1CC(n2nnc(-c3cc4c(cc3F)S(=O)(=O)C[C@H](N)C(=O)N4Cc3ccc(Cl)cc3)n2)CC(F)(F)C1 (stereo partly drawn) [Example 23, (3R)-3-amino-5-[(4-chlorophenyl)methyl]-7-[2-(5,5-difluoro-1-methylsulfonyl-3-piperidyl)tetrazol-5-yl]-8-fluoro-1,1-dioxo-2,3-dihydro-1λ^6,5-benzothiazepin-4-one] | 161 | 6.23 | 5.42 |  | 
CC(=O)N1CC(n2nnc(-c3cc4c(cc3F)S(=O)(=O)C[C@H](N)C(=O)N4Cc3ccc(Cl)cc3)n2)CC(F)(F)C1 (stereo partly drawn) [Example 24, (3R)-7-[2-(1-acetyl-5,5-difluoro-3-piperidyl)tetrazol-5-yl]-3-amino-5-[(4-chlorophenyl)methyl]-8-fluoro-1,1-dioxo-2,3-dihydro-1λ^6,5-benzothiazepin-4-one] | 95 | 5.70 | 5.18 |  | 
COC(=O)N1CC(n2nnc(-c3cc4c(cc3F)S(=O)(=O)C[C@H](N)C(=O)N4Cc3ccc(Cl)cc3)n2)CC(F)(F)C1 (stereo partly drawn) [Example 25, methyl 3,3-difluoro-5-[5-[(3R)-3-amino-5-[(4-chlorophenyl)methyl]-8-fluoro-1,1,4-trioxo-2,3-dihydro-1λ^6,5-benzothiazepin-7-yl]tetrazol-2-yl]piperidine-1-carboxylate] | 132 | 6.60 | 5.88 |  | 
CC(=O)N[C@H]1CS(=O)(=O)c2cc(F)c(-c3nnn(C4CNCC(F)(F)C4)n3)cc2N(Cc2ccc(Cl)cc2)C1=O (stereo partly drawn) [Example 26, N-[(3R)-5-[(4-chlorophenyl)methyl]-7-[2-(5,5-difluoro-3-piperidyl)tetrazol-5-yl]-8-fluoro-1,1,4-trioxo-2,3-dihydro-1λ^6,5-benzothiazepin-3-yl]acetamide] | 64 | 5.19 | < 5.00 |  | 
CC(C)(O)Cn1nnc(-c2cc3c(cc2F)S(=O)(=O)C[C@H](N)C(=O)N3Cc2ccc(Cl)cc2)n1 [Example 27, (3R)-3-amino-5-[(4-chlorophenyl)methyl]-8-fluoro-7-[2-(2-hydroxy-2-methyl-propyl)tetrazol-5-yl]-1,1-dioxo-2,3-dihydro-1λ^6,5-benzothiazepin-4-one] | 103 | 5.69 | 5.91 |  | 
CC(C)(C)n1nnc(-c2cc3c(cc2F)S(=O)(=O)C[C@H](N)C(=O)N3Cc2ccc(OC(F)(F)F)cc2)n1 [Example 30, (3R)-3-amino-7-(2-tert-butyltetrazol-5-yl)-8-fluoro-1,1-dioxo-5-[[4-(trifluoromethoxy)phenyl]methyl]-2,3-dihydro-1λ^6,5-benzothiazepin-4-one] | 117 | 7.36 | 7.40 |  | 
CC(C)(C)n1nnc(-c2ccc3c(c2)N(Cc2ccc(OC(F)(F)F)cc2)C(=O)[C@@H](N)CS3(=O)=O)n1 [Example 31, (3R)-3-amino-7-(2-tert-butyltetrazol-5-yl)-1,1-dioxo-5-[[4-(trifluoromethoxy)phenyl]methyl]-2,3-dihydro-1λ^6,5-benzothiazepin-4-one] | 97 | 6.56 | 6.46 |  | 
CC(C)(C)n1nnc(-c2cc3c(cc2F)S(=O)(=O)C[C@H](N)C(=O)N3Cc2ccc(F)cc2)n1 [Example 32] | 101 | 6.09 | 5.12 |  | 
CC(C)(C)n1nnc(-c2cc3c(cc2F)S(=O)(=O)C[C@H](N)C(=O)N3Cc2ccc(OCC3CCOCC3)cc2)n1 [Example 33, (3R)-3-amino-7-(2-tert-butyltetrazol-5-yl)-8-fluoro-1,1-dioxo-5-[[4-(tetrahydropyran-4-ylmethoxy)phenyl]methyl]-2,3-dihydro-1λ^6,5-benzothiazepin-4-one] | 104 | 5.72 | 5.28 |  | 
CC(C)(C)n1nnc(-c2cc3c(cc2F)[S+]([O-])C[C@H](N)C(=O)N3Cc2ccc(Cl)cc2)n1 (stereo partly drawn) [Example 34, (3R)-3-amino-7-(2-tert-butyltetrazol-5-yl)-5-[(4-chlorophenyl)methyl]-8-fluoro-1-oxo-2,3-dihydro-1λ^4,5-benzothiazepin-4-one] |  |  | 5.23 | 100 | 5.55
CC(C)(C)n1nnc(-c2cc3c(cc2F)[S+]([O-])C[C@H](N)C(=O)N3Cc2ccc(Cl)cc2)n1 (stereo partly drawn) [Example 35, (3R)-3-amino-7-(2-tert-butyltetrazol-5-yl)-5-[(4-chlorophenyl)methyl]-8-fluoro-1-oxo-2,3-dihydro-1λ^4,5-benzothiazepin-4-one] |  |  | 5.15 | 125 | 5.91
N[C@H]1CS(=O)(=O)c2cc(F)c(-c3ccn[nH]3)cc2N(Cc2ccc(Cl)cc2)C1=O [Example 37, (3R)-3-amino-5-[(4-chlorophenyl)methyl]-8-fluoro-1,1-dioxo-7-(1H-pyrazol-5-yl)-2,3-dihydro-1λ^6,5-benzothiazepin-4-one] | 57 | 4.82 | < 4.70 |  | 
CCc1nc(-c2cc3c(cc2F)S(=O)(=O)C[C@H](N)C(=O)N3Cc2ccc(Cl)cc2)n[nH]1 [Example 38, (3R)-3-amino-5-[(4-chlorophenyl)methyl]-7-(5-ethyl-1H-1,2,4-triazol-3-yl)-8-fluoro-1,1-dioxo-2,3-dihydro-1λ^6,5-benzothiazepin-4-one] | 50 | < 4.70 | < 4.70 |  | 
N[C@H]1CS(=O)(=O)c2ccc(-c3nc(CC(F)(F)F)no3)nc2N(Cc2ccc(Cl)cc2)C1=O [Example 39, (3R)-3-amino-5-[(4-chlorophenyl)methyl]-1,1-dioxo-7-[3-(2,2,2-trifluoroethyl)-1,2,4-oxadiazol-5-yl]-2,3-dihydropyrido[3,2-b][1,4]thiazepin-4-one] | 161 | 6.31 | 6.07 |  | 
CC(C)(F)c1nc(-c2cc3c(cc2F)S(=O)(=O)C[C@H](N)C(=O)N3Cc2ccc(Cl)cc2)no1 [Example 47, (3R)-3-amino-5-[(4-chlorophenyl)methyl]-8-fluoro-7-[5-(1-fluoro-1-methyl-ethyl)-1,2,4-oxadiazol-3-yl]-1,1-dioxo-2,3-dihydro-1λ^6,5-benzothiazepin-4-one] | 142 | 6.25 | 5.54 |  | 
CC(C)(C)c1cc(-c2cc3c(cc2F)S(=O)(=O)C[C@H](N)C(=O)N3Cc2ccc(Cl)cc2)on1 [Example 52, (3R)-3-amino-7-(3-tert-butylisoxazol-5-yl)-5-[(4-chlorophenyl)methyl]-8-fluoro-1,1-dioxo-2,3-dihydro-1λ^6,5-benzothiazepin-4-one] | 133 | 5.96 | 6.01 |  | 
